Measurements published in PMC3581588, “Foam Cell Specific LXRα Ligand” (PLoS ONE, 2013).
Where two headings read alike, the source gives them in different places.

What was measured:
[1] = biological target: T1, LXRα ligand binding domain (Homo sapiens, UniProt Q13133); experiment: dual luciferase reporter gene assay, LXRα-LBD/GAL4-DBD in HEK-293 cells; assay type: cell-based
T1 construct: expressed in transfected cells; host or cells: HEK-293
T1 sequence (Q13133 164-447): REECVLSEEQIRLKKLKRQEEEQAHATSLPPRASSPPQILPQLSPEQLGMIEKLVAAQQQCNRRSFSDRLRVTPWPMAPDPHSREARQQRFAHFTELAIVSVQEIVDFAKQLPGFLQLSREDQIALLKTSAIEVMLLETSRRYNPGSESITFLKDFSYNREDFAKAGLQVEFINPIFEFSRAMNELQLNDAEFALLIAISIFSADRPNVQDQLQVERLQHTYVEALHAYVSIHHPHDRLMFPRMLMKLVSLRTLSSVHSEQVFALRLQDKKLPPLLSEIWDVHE
Method: (§1) The ligand binding domain (LBD) of LXRα (amino acids 164 to 447) or LXRβ (amino acids 154 to 461) was cloned into pBIND [Renilla/Amp] vector (Promega). Selection and amplification were performed in E. coli cells. Purification of the plasmids was performed with a plasmid purification kit (Qiagen). For transfection HEK-293 cells were plated in 96-well plates (TPP) at a density of 3.5×10^4 cells/well for 24 h. To investigate the ligand binding on LXRα ligand binding domain, 0.04 ng of renilla luciferase coding plasmide pGL4.75 (Promega), 0.04 ng of LXRα-LBD/GAL4-DBD plasmide and 80 ng of firefly luciferase coding plasmide pGL4.31 (Promega) were used in a total volume of 200 µL for each well. For LXRβ binding assay 40 ng of LXRβ-LBD/GAL4-DBD plasmide were applied in each transfection mix. Transfection was carried out for 4 h with Lipofectamine 2000 Transfection Reagent (Invitrogen) in Opti-MEM medium (Invitrogen). Ligand treatment was performed at different concentrations for 24 h. For lysis and detection dual-luciferase reporter gene assay system (Promega) and POLARstar Omega (BMG LABTECH) were used.

THP-1 macrophages [2] = experiment: gene expression of LXRα target genes (qPCR) in THP-1 macrophages; assay type: cell-based, human; details: for expression of LXRα target genes (LXRα, SREBF1, ABCA1, APOE): 10 µM, 24 h
Method: (§2) We used the human THP1 cell line, which is widely applied as a macrophage and foam cell model with similar properties as primary cells. […] For generating macrophages differentiation was induced by 10^−8 M Phorbol 12-myristate 13-acetate (PMA) (Sigma-Aldrich) for 48 h. Ligand treatment of macrophages was performed for further 24 h. To induce foam cell formation macrophages were treated for additional 48 h with 100 µg/mL modified human oxidized low density lipoprotein (oxLDL) obtained from Source BioScience (RP-048). Ligand treatment was performed simultaneously with foam cell formation. Cholesterol loading and treatment was controlled with Oil Red O staining (Alfa Aeser). To investigate ligand induced effects on cell proliferation of THP-1 macrophages CellTiter-Glo Luminescent Cell Viability Assay (Promega) was utilized.
(§3) Total RNA isolation and purification was performed by using the RNeasy Mini Kit (QIAGEN) and RNase-Free DNase Set (QIAGEN). cDNA was generated by reverse transcription using the High Capacity cDNA Reverse Transcription Kit (Life Technologies). Gene expression was quantified using the SYBR Green PCR Master Mix (Life Technologies) and ABI 7900HT Fast Real Time PCR System (Life Technologies). In each reaction 0.8 ng/µL cDNA and 0.2 µM primers were used. Gene expression was calculated with the ΔΔCt-method. ß-Actin was used for normalisation.

THP1-derived foam cells [3] = experiment: cholesterol and triglyceride content in foam cells; assay type: cell-based, human; details: 10 µM, 48 h, vs. DMSO
Method: as §2
(§4) THP-1 monocytes were plated out into 24-well plates (Nunc) at a density of 2×10^5 cells/well. After differentiation and treatment cells were lysed with 100 µL lysis buffer (PBS, 0.25 M NaCl, 1% Triton X-100). Total and free cholesterol were determined using the colorimetric enzymatic Amplex Red Cholesterol Assay Kit (Invitrogen). Triglycerides were quantified by Triglyceride Assay Kit (BioVision). For normalisation protein content was determined with Pierce 660 nm Protein Assay Reagent (Thermo Scientific).

THP-1 macrophages [4] = experiment: triglyceride content in macrophages; assay type: cell-based, human; details: 10 µM, 48 h, vs. DMSO
Method: as §2, §4

THP1-derived foam cells [5] = experiment: Western blot of LXRα and APOE in foam cells; assay type: cell-based, human; details: Western blot densitometry
Method: as §2
Whole cell extracts were harvested from three biological replicates and denaturized for SDS-PAGE (NuPAGE Novex 4–12% Bis-Tris Gels). Proteins were blotted on nitrocellulose Hybond ECL membrane and incubated with strictly validated published antibodies against LXRα (Abcam, ab 41902), APOE (Abcam ab1906), and as housekeeping protein control β-Actin (Santa Cruz Biotechnology, sc-47778, C4). […] This tool measures quantitatively the optical density and provides more accurate data than simple eye-observations. […]

[6] = biological target: T2, LXRβ ligand binding domain (Homo sapiens, UniProt P55055); experiment: dual luciferase reporter gene assay, LXRβ-LBD/GAL4-DBD in HEK-293 cells; assay type: cell-based
T2 construct: expressed in transfected cells; host or cells: HEK-293
T2 sequence (P55055 154-460 limits assumed): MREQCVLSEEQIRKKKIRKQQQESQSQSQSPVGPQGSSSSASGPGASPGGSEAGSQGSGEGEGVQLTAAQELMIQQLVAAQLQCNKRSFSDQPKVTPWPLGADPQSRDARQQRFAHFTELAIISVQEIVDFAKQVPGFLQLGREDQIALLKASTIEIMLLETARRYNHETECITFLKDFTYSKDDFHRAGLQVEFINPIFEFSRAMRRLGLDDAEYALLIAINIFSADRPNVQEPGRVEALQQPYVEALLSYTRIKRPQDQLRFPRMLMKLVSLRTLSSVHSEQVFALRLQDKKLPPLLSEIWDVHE
Method: as §1

THP1-derived foam cells [7] = experiment: gene expression of LXRα target genes (qPCR) in oxLDL-loaded foam cells; assay type: cell-based, human; details: 10 µM
Method: as §2, §3

[8] = +DMSO, transcriptional activation vs. T09

Efficacy ([1]; +200 nM T0901317 (additive))	EC50 ([1]; +200 nM T0901317 (additive), read-out: EC50)	EC50 ([1]; +DMSO, LXRα reporter gene, HEK-293, 24 h, read-out: EC50)	Transcriptional activation of LXRβ [6]	Compound	EC50 [1]	Efficacy [1, 8]	expression of LXRα target genes (LXRα, SREBF1, ABCA1, APOE) (THP-1 macrophages [2])	total and esterified cholesterol content (THP1-derived foam cells [3])	triglyceride levels (THP1-derived foam cells [3])	triglyceride level (THP-1 macrophages [4])	protein expression levels of LXRα target genes (LXRα, APOE) (THP1-derived foam cells [5])	ABCA1 expression with STX4 in the presence of T09 (THP-1 macrophages [2]; presence of 1 µM T09)	expression of LXRα target genes (LXRα, SREBF1, ABCA1, APOE) (THP1-derived foam cells [7])
				CC(C)CC[C@@H](O)[C@@H](C)[C@H]1CC[C@H]2[C@@H]3CC=C4C[C@@H](O)CC[C@]4(C)[C@H]3CC[C@]12C [22-R-Hydroxycholesterol, reference compound]	13300 nM	4%							
				O=S(=O)(c1ccccc1)N(CC(F)(F)F)c1ccc(C(O)(C(F)(F)F)C(F)(F)F)cc1 [T0901317, reference compound]			increased expression	significant reduction	increased triglyceride levels	stayed rather unchanged			
47%	28 nM	35 nM	does not activate	C(=C\c1ccc(OCC2CO2)cc1)/c1ccccc1 (stereo not drawn) [STX4, 2-[[4-[(E)-styryl]phenoxy]methyl]oxirane]		6%	not	significant reduction	not increased	stayed rather unchanged	increased protein expression levels	additive effects	potent target gene expression similar to T09
